Laboratory results published in paper PMC8317065, “UPLC-MS/MS Method for Analysis of Endocannabinoid and Related Lipid Metabolism in Mouse Mucosal Tissue” (Frontiers in Physiology, 2021).

Tests used:
[1] = system: FAE metabolism; assay: THL oral gavage: levels of FAEs in jejunum mucosa, lung and plasma; format: in vivo, mouse
Description: (§1) Adult C57BL/6J male mice were food-deprived for 24 h prior to harvest with ad libitum access to water. To prevent coprophagia, animals were maintained on elevated wire-bottom cages for a 72-hour acclimation period and during the 24-hour food deprivation. One hour prior to harvest, mice received an oral gavage (100 μL of 10 mg/mL) of the DGL inhibitor, THL, in polyethylene glycol (PEG) or PEG alone as control. Jejunum intestinal epithelium and lungs were harvested as described above (see section “Tissue Harvest and Preparation for Enzyme Assays”).
(§2) Frozen tissue samples were weighed and homogenized in 1.0 mL of methanol containing the internal standards [^2H5]-2-AG (500 pmol), [^2H4]-AEA (1 pmol), and [^2H4]-OEA (10 pmol). Lipids were extracted using chloroform (2.0 mL) prior to being washed with 1.0 mL 0.2-micron ultra-purified water. Following centrifugation (1,500 × g, 15 min, 4°C), the lower organic phase was collected and dried under N2 steam (99.998% pure). A second chloroform wash (1.0 mL) was then performed followed by another centrifugation (1,500 × g, 15 min, 4°C) and collection of the lower phase. Samples were reconstituted in 2.0 mL of chloroform and purified via open-bed silica gel column chromatography. Columns were washed with a 9:1 chloroform:methanol mixture to elute MAGs and FAEs for collection. Collected eluates were dried under N2 steam (99.998% pure) and resuspended in 0.2 mL of methanol:chloroform (1:1) prior to analysis via UPLC-MS/MS (see section “Quantitation of MAGs and FAEs”).
(§3) Data was acquired using equipment described above (see section “UPLC-MS/MS Detection of Analytes”) and using the elution protocol described above (see section “Quantitation of MAG Biosynthetic Enzyme Activity Assay Products”). Cone voltage and collision energy for each analyte are as follows, respectively: AEA = 30 v, 14 v; [^2H4]-AEA = 26 v, 16v; OEA = 28 v, 16 v; [^2H4]-OEA = 48 v, 14 v; DHEA = 30 v, 50 v; 2-AG (20:4) = 30 v, 12 v; [^2H5]-2-AG = 25 v, 44v; 2-DG (22:6) = 34 v, 14 v; 2-PG (16:0) = 18 v, 10 v; 2-OG (18:1) = 42 v, 10 v; 2-LG (18:2) = 30 v, 10 v. MS/MS detection was in positive ion mode and capillary voltage set at 0.1 kV. Extracted ion chromatograms were used to quantify AEA (m/z = 348.3 > 62.0), [^2H4]-AEA (m/z = 352.3 > 66.1), OEA (m/z = 326.4 > 62.1), [^2H4]-OEA (m/z = 330.4 > 66.0), DHEA (m/z = 372.3 > 91.0), 2-AG (m/z = 379.3 > 287.3), [^2H5]-2-AG (m/z = 384.3 > 93.4), 2-DG (m/z = 403.3 > 311.1), 2-PG (m/z = 331.3 > 239.3), 2-OG (m/z = 357.4 > 265.2), and 2-LG (m/z = 355.3 > 263.3). Quantitation occurred using a stable isotope dilution method to detect protonated adducts of the ions [M + H] + in MRM mode. Acyl migration is known to occur in many MAG species following silica-gel purification, therefore the sum of 1-AG and 2-AG, 1-PG and 2-PG, 1-OG and 2-OG, and 1-DG and 2-DG are reported ([Stella et al., 1997]). The established lower limit of quantitation (LLOQ: signal to noise ratio >10) for 2-AG, 2-DG, 2-PG, 2-OG, and 2-LG was 0.5 pmol. The LLOQ for AEA, OEA, and DHEA was 0.008 pmol.

[2] = system: MAG biosynthesis (DGL); assay: THL oral gavage: levels of MAGs in jejunum mucosa, lung and plasma; format: in vivo, mouse
Description: as §1, §2, §3

[3] = THL 1 mg oral, 1 h prior to tissue harvest

For CCCCCCCCCCC[C@@H](C[C@@H]1OC(=O)[C@H]1CCCCCC)OC(=O)[C@H](CC(C)C)NC=O [THL, tetrahydrolipstatin], the “AEA level in jejunum mucosa” value ([1]; THL 1 mg oral gavage 1 h prior to harvest, vehicle 2.85 ± 0.29) was 2.41 ± 0.24 pmol/g, the “AEA level in lung” value ([1]; THL 1 mg oral gavage 1 h prior to harvest, vehicle 3.14 ± 0.14) was 2.85 ± 0.08 pmol/g and the “AEA level in plasma” value ([1]; THL 1 mg oral gavage 1 h prior to harvest, vehicle 3.76 ± 0.07) was 3.11 ± 0.50 pmol/mL. For the same molecule, the “DHEA level in plasma” value ([1]; THL 1 mg oral gavage 1 h prior to harvest, vehicle 6.41 ± 0.76) was 5.62 ± 0.43 pmol/mL, the “DHEA level in lung” value ([1]; THL 1 mg oral gavage 1 h prior to harvest, vehicle 14.25 ± 2.18) was 16.13 ± 1.19 pmol/g and the “DHEA level in jejunum mucosa” value ([1]; THL 1 mg oral gavage 1 h prior to harvest, vehicle 14.53 ± 1.25) was 18.97 ± 5.08 pmol/g. For the same molecule, the “OEA level in plasma” value ([1]; THL 1 mg oral gavage 1 h prior to harvest, vehicle 41.19 ± 3.84) was 36.12 ± 2.36 pmol/mL, the “OEA level in jejunum mucosa” value ([1]; THL 1 mg oral gavage 1 h prior to harvest, vehicle 52.23 ± 6.73) was 46.83 ± 9.00 pmol/g and the “OEA level in lung” value ([1]; THL 1 mg oral gavage 1 h prior to harvest, vehicle 92.06 ± 4.99) was 83.75 ± 3.44 pmol/g. For the same molecule, the “effect on levels of FAEs in jejunum mucosa vs vehicle” value [1, 3] was “no changes”, the “effect on levels of FAEs in lung tissue vs vehicle” value [1, 3] was “no changes” and the “effect on plasma concentrations of FAEs vs vehicle” value [1, 3] was “unaffected”. For the same molecule, the “2-LG level in lung” value ([2]; THL 1 mg oral gavage 1 h prior to harvest, vehicle 0.51 ± 0.10) was 1.13 ± 0.35 nmol/g, the “2-DG level in lung” value ([2]; THL 1 mg oral gavage 1 h prior to harvest, vehicle 1.17 ± 0.07) was 1.02 ± 0.07 nmol/g and the “2-OG level in lung” value ([2]; THL 1 mg oral gavage 1 h prior to harvest, vehicle 1.81 ± 0.13) was 2.25 ± 0.37 nmol/g. The “2-OG level in plasma” value ([2]; THL 1 mg oral gavage 1 h prior to harvest, vehicle 2.71 ± 0.68) was 1.53 ± 0.22 pmol/mL, the “2-PG level in lung” value ([2]; THL 1 mg oral gavage 1 h prior to harvest, vehicle 3.15 ± 0.26) was 2.51 ± 0.15 nmol/g and the “2-AG level in lung” value ([2]; THL 1 mg oral gavage 1 h prior to harvest, vehicle 4.47 ± 0.44) was 3.73 ± 0.37 nmol/g. The “2-AG level in plasma” value ([2]; THL 1 mg oral gavage 1 h prior to harvest, vehicle 31.59 ± 3.93) was 29.34 ± 2.18 pmol/mL, the “2-DG level in plasma” value ([2]; THL 1 mg oral gavage 1 h prior to harvest, vehicle 44.25 ± 11.63) was 32.82 ± 1.67 pmol/mL and the “2-PG level in plasma” value ([2]; THL 1 mg oral gavage 1 h prior to harvest, vehicle 46.63 ± 4.97) was 51.99 ± 9.87 pmol/mL. For the same molecule, the “2-LG level in plasma” value ([2]; THL 1 mg oral gavage 1 h prior to harvest, vehicle 156.32 ± 27.64) was 105.12 ± 11.41 pmol/mL, the “effect on levels of MAGs in lung vs vehicle” value [2, 3] was “no significant changes” and the “effect on plasma MAGs vs vehicle” value [2, 3] was “No significant changes”. The “effect on levels of all MAGs in jejunum mucosa vs vehicle” value ([2]; THL 1 mg oral, 1 h prior to tissue harvest, 24 h food deprived mice) was “reduced”, the “2-DG level in jejunum mucosa” value ([2]; mice food deprived 24 h, THL 1 mg oral gavage 1 h prior to harvest, vehicle 7.53 ± 1.40) was 0.85 ± 0.13 nmol/g and the “2-PG level in jejunum mucosa” value ([2]; mice food deprived 24 h, THL 1 mg oral gavage 1 h prior to harvest, vehicle 13.52 ± 2.60) was 4.91 ± 0.51 nmol/g. The “2-AG level in jejunum mucosa” value ([2]; mice food deprived 24 h, THL 1 mg oral gavage 1 h prior to harvest, vehicle 45.81 ± 7.02) was 8.04 ± 1.52 nmol/g, the “2-OG level in jejunum mucosa” value ([2]; mice food deprived 24 h, THL 1 mg oral gavage 1 h prior to harvest, vehicle 100.71 ± 28.93) was 5.56 ± 1.10 nmol/g and the “2-LG level in jejunum mucosa” value ([2]; mice food deprived 24 h, THL 1 mg oral gavage 1 h prior to harvest, vehicle 194.08 ± 40.11) was 24.61 ± 7.48 nmol/g.
